Results on 2 compounds are retold here after ChEMBL document CHEMBL5725285, “Pyrrole six-membered heteroaryl ring derivative, preparation method thereof, and medicinal uses thereof” (2016).

Broadly, the IC50 is the midpoint of a concentration-inhibition curve.

Assay [1] deals with T1, Tyrosine-protein kinase JAK1 (Homo sapiens, UniProt P23458). As to the kind of experiment: JAK1 Kinase Assay: TBDIn vitro kinase assays described below can be used to determine the activity of a test compound for inhibiting the activity of JAK1 kinase. The test compounds were dissolved in dimethyl sulfoxide and diluted with water to a serial concentration gradient as required in the experiment. JAK1 substrates (Cell Signaling Technology, Catalog Number: 1305s) and ATP (2 mM) solution ….

Assay [2] concerns the target T2, Tyrosine-protein kinase JAK3 (Homo sapiens, UniProt P52333).
T2 sequence (P52333 whole entry): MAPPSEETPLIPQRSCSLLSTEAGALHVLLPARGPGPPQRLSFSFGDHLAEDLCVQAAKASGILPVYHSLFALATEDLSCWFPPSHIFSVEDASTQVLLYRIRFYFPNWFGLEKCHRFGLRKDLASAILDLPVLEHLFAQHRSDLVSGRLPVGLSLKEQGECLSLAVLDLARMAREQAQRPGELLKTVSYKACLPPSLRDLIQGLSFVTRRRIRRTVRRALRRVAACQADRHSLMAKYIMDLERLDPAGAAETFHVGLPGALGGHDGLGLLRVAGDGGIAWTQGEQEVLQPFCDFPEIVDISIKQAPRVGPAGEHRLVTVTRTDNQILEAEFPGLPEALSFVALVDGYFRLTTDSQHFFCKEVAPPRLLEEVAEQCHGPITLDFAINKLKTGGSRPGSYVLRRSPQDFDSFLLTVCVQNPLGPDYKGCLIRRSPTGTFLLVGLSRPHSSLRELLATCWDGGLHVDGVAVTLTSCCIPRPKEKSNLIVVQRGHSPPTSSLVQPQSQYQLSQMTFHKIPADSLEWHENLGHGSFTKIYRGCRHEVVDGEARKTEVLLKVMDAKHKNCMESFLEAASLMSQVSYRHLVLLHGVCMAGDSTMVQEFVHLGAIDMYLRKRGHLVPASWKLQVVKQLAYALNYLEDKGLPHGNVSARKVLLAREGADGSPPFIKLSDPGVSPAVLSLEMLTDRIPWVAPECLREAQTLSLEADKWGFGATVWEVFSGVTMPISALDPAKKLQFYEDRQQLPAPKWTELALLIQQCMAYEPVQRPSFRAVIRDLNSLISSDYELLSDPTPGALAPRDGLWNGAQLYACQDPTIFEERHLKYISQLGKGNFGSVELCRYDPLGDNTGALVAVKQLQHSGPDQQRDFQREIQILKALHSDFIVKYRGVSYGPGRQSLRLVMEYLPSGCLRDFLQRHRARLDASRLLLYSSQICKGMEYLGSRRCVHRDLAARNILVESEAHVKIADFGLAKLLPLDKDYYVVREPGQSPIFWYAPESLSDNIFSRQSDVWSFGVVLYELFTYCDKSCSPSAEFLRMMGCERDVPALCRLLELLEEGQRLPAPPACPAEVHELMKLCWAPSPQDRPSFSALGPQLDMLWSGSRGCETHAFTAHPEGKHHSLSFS
Description: In Vitro Kinase Assay: In vitro kinase assays described below can be used to determine the activity of a test compound for inhibiting the activity of JAK3 kinase. The test compounds were dissolved in dimethyl sulfoxide and diluted with water to a serial concentration gradient as required by the experiment. JAK3 substrates (Cell Signaling Technology, Catalog Number: 1305s) and ATP (2 mM) solution ….

The target of assay [3] is T1, Tyrosine-protein kinase JAK1. Description: IC50 values of test compounds was calculated from the data of the test compounds in inhibiting the activity of JAK1 kinase at different concentrations.

T1 sequence (P23458 whole entry): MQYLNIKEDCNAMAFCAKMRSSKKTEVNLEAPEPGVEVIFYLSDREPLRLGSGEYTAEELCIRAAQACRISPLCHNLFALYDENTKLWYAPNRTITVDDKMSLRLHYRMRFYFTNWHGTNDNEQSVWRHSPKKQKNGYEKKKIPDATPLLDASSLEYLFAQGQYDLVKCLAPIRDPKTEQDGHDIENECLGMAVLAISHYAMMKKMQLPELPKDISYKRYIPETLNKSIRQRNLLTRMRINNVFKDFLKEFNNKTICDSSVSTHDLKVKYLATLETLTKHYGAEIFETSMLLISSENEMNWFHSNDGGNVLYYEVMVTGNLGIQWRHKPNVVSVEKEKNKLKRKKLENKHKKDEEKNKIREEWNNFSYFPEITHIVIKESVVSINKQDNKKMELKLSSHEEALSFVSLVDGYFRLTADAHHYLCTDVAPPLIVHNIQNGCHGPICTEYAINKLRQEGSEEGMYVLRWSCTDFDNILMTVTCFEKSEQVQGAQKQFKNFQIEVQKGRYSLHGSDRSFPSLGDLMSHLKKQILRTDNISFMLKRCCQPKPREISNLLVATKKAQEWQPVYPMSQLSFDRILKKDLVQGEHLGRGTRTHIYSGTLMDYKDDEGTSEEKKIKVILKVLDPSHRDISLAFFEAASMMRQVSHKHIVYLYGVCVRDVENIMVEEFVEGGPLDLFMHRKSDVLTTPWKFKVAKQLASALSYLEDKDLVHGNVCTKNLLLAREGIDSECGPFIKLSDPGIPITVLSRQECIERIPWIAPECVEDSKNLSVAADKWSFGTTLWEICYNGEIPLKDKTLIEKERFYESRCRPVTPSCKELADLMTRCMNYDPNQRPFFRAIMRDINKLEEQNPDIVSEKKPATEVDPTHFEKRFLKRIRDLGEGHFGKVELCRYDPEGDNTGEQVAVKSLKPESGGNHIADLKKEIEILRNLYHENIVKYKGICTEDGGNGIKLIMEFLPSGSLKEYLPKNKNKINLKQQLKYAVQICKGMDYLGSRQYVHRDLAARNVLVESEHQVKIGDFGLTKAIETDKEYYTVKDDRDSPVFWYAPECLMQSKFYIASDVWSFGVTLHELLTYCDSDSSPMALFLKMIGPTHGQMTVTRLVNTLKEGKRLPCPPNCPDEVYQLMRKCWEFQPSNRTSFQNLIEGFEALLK

`CN(c1ncnc2[nH]ccc12)[C@@H]1C[C@@H]2CCN(C(=O)Nc3nncs3)C[C@@H]2C1`: the IC50 in assay [1] is 40 nM; in assay [2], 148 nM.
Regarding `CN(c1ncnc2[nH]ccc12)[C@H]1C[C@@H]2CN(C(=O)[C@H](O)C(F)(F)F)C[C@@H]2C1`, in assay [3], the 50% inhibitory concentration (IC50) is 45 nM.
